Laboratory results: US10821115B2, “Compounds that inhibit Mcl-1 protein” (priority 2017, dated 2020)
Like-named read-outs stand apart in the source and are kept apart here.

Columns and labels:
[1] = molecular target: recombinant human Mcl-1 (residues 171-327) / Bim interaction (Homo sapiens (Human), UniProt Q07820); assay: biochemical; format: binding; conditions: read-out: Mcl-1 HTRF IC50
[2] = test system: human multiple myeloma cell line, OPM-2; assay: Cell viability assay (OPM-2 10 FBS), CellTiter-Glo; format: cell-based
Summary of the method: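 Cells were seeded at 3000 cells/well in RPMI 1640 with 10% FBS and exposed to serially diluted compounds for 16 h at 37 °C, 5% CO2.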

[3] = 0.1 nM Mcl-1(171-327), 0.05 nM biotin-Bim (51-76)
[4] = Homo sapiens, OPM-2, 16 h, read-out: OPM-2 10% FBS IC50 IP, OPM-2 cells, 10% FBS, 16 h incubation
[5] = TR-FRET, Mcl-1(171-327) / biotin-Bim (51-76)
[6] = Homo sapiens, OPM-2, 16 h, read-out: OPM-2 10% FBS IC50 IP, OPM-2 cells, 10% FBS, 16 h, CellTiter-Glo
[7] = read-out: OPM-2 10% FBS IC50 IP, OPM-2 cells, 10% FBS, 16 h incubation
[8] = read-out: OPM-2 10% FBS IC50 IP, OPM-2 cells, 10% FBS, 16 h, CellTiter-Glo

recombinant human Mcl-1 (residues 171-327) / Bim interaction, sequence (Q07820 171-327): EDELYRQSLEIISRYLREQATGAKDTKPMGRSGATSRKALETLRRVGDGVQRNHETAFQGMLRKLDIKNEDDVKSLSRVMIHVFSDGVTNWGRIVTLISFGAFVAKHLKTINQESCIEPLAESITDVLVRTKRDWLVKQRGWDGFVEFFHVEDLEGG

| Compound | IC50 [1, 3] [nM] | IC50 [2, 4] [nM] | IC50 [1, 5] [nM] | IC50 [2, 6] [nM] | other results |
| --- | --- | --- | --- | --- | --- |
| CO[C@@]1(CN2CCN(C3COC3)CC2)/C=C/C[C@H](C)[C@@H](C)S(=O)(=O)NC(=O)c2ccc3c(c2)N(C[C@@H]2CC[C@H]21)C[C@@]1(CCCc2cc(Cl)ccc21)CO3 [Example 250, (1S,3′R,6′R,7′S,8′E,11′S,12′R)-6-chloro-7′-methoxy-11′,12′-dimethyl-7′-((4-(3-oxetanyl)-1-piperazinyl)methyl)-3,4-dihydro-2H,15′H-spiro[naphthalene-1,22′-[20]oxa[13]thia[1,14]diazatetracyclo [14.7.2.0~3,6~.0~19,24~]pentacosa[8,16,18,24]tetraen]-15′-one 13′,13′-dioxide] | 0.071 | 47 | – | – | – |
| CO[C@@]1(CN2CCN(c3ccccc3)CC2)/C=C/C[C@H](C)[C@@H](C)S(=O)(=O)NC(=O)c2ccc3c(c2)N(C[C@@H]2CC[C@H]21)C[C@@]1(CCCc2cc(Cl)ccc21)CO3 [Example 251, (1S,3′R,6′R,7′S,8′E,11′S,12′R)-6-chloro-7′-methoxy-11′,12′-dimethyl-7′-((4-phenyl-1-piperazinyl)methyl)-3,4-dihydro-2H,15′H-spiro[naphthalene-1,22′-[20]oxa[13]thia[1,14]diazatetracyclo [14.7.2.0~3,6~.0~19,24~]pentacosa[8,16,18,24]tetraen]-15′-one 13′,13′-dioxide] | 2.26 | 3870 | – | – | – |
| C[C@@H]1[C@@H](C)C/C=C/[C@@](O)(CC(=O)O)[C@@H]2CC[C@H]2CN2C[C@@]3(CCCc4cc(Cl)ccc43)COc3ccc(cc32)C(=O)NS1(=O)=O [Example 100101, ((1S,3′R,6′R,7′S,8′E,11′S,12′R)-6-chloro-7′-hydroxy-11′,12′-dimethyl-13′,13′-dioxido-15′-oxo-3,4-dihydro-2H-spiro[naphthalene-1,22′-[20]oxa[13]thia[1,14]diazatetracyclo [14.7.2.0~3,6~.0~19,24~]pentacosa[8,16,18,24]tetraen]-7′-yl)acetic acid] | – | – | 0.062 | 2600 | – |
| CC[C@@H]1CC/C=C/[C@](CN2CCN3CCOC[C@@H]3C2)(OC)[C@@H]2CC[C@H]2CN2C[C@@]3(CCCc4cc(Cl)ccc43)COc3ccc(cc32)C(=O)NS1(=O)=O [Example 28, (1S,3′R,6′R,7′S,8′E,12′R)-6-chloro-12′-ethyl-7′-((9aS)-hexahydropyrazino[2,1-c][1,4]oxazin-8(1H)-ylmethyl)-7′-methoxy-3,4-dihydro-2H,15′H-spiro[naphthalene-1,22′-[20]oxa[13]thia[1,14]diazatetracyclo [14.7.2.0~3,6~.0~19,24~]pentacosa[8,16,18,24]tetraen]-15′-one 13′,13′-dioxide] | 0.082 | 111 | – | – | – |
| CO[C@]1(CCN2CCN3CCOC[C@@H]3C2)/C=C/C[C@H](C)[C@@H](C)S(=O)(=O)NC(=O)c2ccc3c(c2)N(C[C@@H]2CC[C@H]21)C[C@@]1(CCCc2cc(Cl)ccc21)CO3 [Example 100425, (1S,3′R,6′R,7′R,8′E,11′S,12′R)-6-chloro-7′-(2-((9aS)-hexahydropyrazino[2,1-c][1,4]oxazin-8(1H)-yl)ethyl)-7′-methoxy-11′,12′-dimethyl-3,4-dihydro-2H,15′H-spiro[naphthalene-1,22′-[20]oxa[13]thia[1,14]diazatetracyclo [14.7.2.0~3,6~.0~19,24~]pentacosa[8,16,18,24]tetraen]-15′-one 13′,13′-dioxide] | – | – | 0.165 | 717 | – |
| CO[C@]1(COCCN2CCOCC2)/C=C/C[C@H](C)[C@@H](C)S(=O)(=O)NC(=O)c2ccc3c(c2)N(C[C@@H]2CC[C@H]21)C[C@@]1(CCCc2cc(Cl)ccc21)CO3 [Example 100594, (1S,3′R,6′R,7′R,8′E,11′S,12′R)-6-chloro-7′-methoxy-11′,12′-dimethyl-7′-((2-(4-morpholinyl)ethoxy)methyl)-3,4-dihydro-2H,15′H-spiro[naphthalene-1,22′-[20]oxa[13]thia[1,14]diazatetracyclo [14.7.2.0~3,6~.0~19,24~]pentacosa[8,16,18,24]tetraen]-15′-one 13′,13′-dioxide] | – | – | 0.143 | 241 | – |
| (1S,3′R,6′R,7′R,8′E,11′S,12′R)-6-chloro-12′-(2-(dimethylamino)ethyl)-7′-methoxy-11′-methyl-7′-((9aR)-octahydro-2H-pyrido[1,2-a]pyrazin-2-ylmethyl)-3,4-dihydro-2H,15′H-spiro[naphthalene-1,22′-[20]oxa[13]thia[1,14]diazatetracyclo[14.7.2.0-3,6˜.0˜19,24˜]pentacosa[8,16,18,24]tetraen]-15′-one 13′,13′-dioxide [Example 367] | 0.201 | – | – | – | IC50 [2, 7]: 273 nM |
| CO[C@]1(CN2CC3(C2)CN(C(C)C)C3)/C=C/C[C@H](C)[C@@H](C)S(=O)(=O)NC(=O)c2ccc3c(c2)N(C[C@@H]2CC[C@H]21)C[C@@]1(CCCc2cc(Cl)ccc21)CO3 [Example 320, (1S,3′R,6′R,7′R,8′E,11′S,12′R)-6-chloro-7′-methoxy-11′,12′-dimethyl-7′-((6-(1-methylethyl)-2,6-diazaspiro[3.3]hept-2-yl)methyl)-3,4-dihydro-2H,15′H-spiro[naphthalene-1,22′-[20]oxa[13]thia[1,14]diazatetracyclo [14.7.2.0~3,6~.0~19,24~]pentacosa[8,16,18,24]tetraen]-15′-one 13′,13′-dioxide] | 0.524 | 302 | – | – | – |
| C[C@@H]1[C@@H](C)C/C=C/[C@@](O)(CC=O)[C@@H]2CC[C@H]2CN2C[C@@]3(CCCc4cc(Cl)ccc43)COc3ccc(cc32)C(=O)NS1(=O)=O [Example 100171, ((1S,3′R,6′R,7′S,8′E,11′S,12′R)-6-chloro-7′-hydroxy-11′,12′-dimethyl-13′,13′-dioxido-15′-oxo-3,4-dihydro-2H-spiro[naphthalene-1,22′-[20]oxa[13]thia[1,14]diazatetracyclo [14.7.2.0~3,6~.0~19,24~]pentacosa[8,16,18,24]tetraen]-7′-yl)acetaldehyde] | – | – | 0.578 | 868 | – |
| CO[C@]1(Cc2cc(C)on2)/C=C/C[C@H](C)[C@@H](C)S(=O)(=O)NC(=O)c2ccc3c(c2)N(C[C@@H]2CC[C@H]21)C[C@@]1(CCCc2cc(Cl)ccc21)CO3 [Example 100548, (1S,3′R,6′R,7′R,8′E,11′S,12′R)-6-chloro-7′-methoxy-11′,12′-dimethyl-7′-((5-methyl-1,2-oxazol-3-yl)methyl)-3,4-dihydro-2H,15′H-spiro[naphthalene-1,22′-[20]oxa[13]thia[1,14]diazatetracyclo [14.7.2.0~3,6~.0~19,24~]pentacosa[8,16,18,24]tetraen]-15′-one 13′,13′-dioxide] | – | – | 0.064 | 8410 | – |
| C[C@@H]1[C@@H](C)CCC[C@](C)(CN2CCN3CCOC[C@@H]3C2)[C@@H]2CC[C@H]2CN2C[C@@]3(CCCc4cc(Cl)ccc43)COc3ccc(cc32)C(=O)NS1(=O)=O [Example 100300, (1S,3′R,6′R,7′S,11′S,12′R)-6-chloro-7′-((9aS)-hexahydropyrazino[2,1-c][1,4]oxazin-8(1H)-ylmethyl)-7′,11′,12′-trimethyl-3,4-dihydro-2H,15′H-spiro[naphthalene-1,22′-[20]oxa[13]thia[1,14]diazatetracyclo [14.7.2.0~3,6~.0~19,24~]pentacosa[16,18,24]trien]-15′-one 13′,13′-dioxide] | – | – | 0.109 | 235 | – |
| CO[C@]1(C#CCN2CCOCC2)/C=C/C[C@H](C)[C@@H](C)S(=O)(=O)NC(=O)c2ccc3c(c2)N(C[C@@H]2CC[C@H]21)C[C@@]1(CCCc2cc(Cl)ccc21)CO3 [Example 100448, (1S,3′R,6′R,7′R,8′E,11′S,12′R)-6-chloro-7′-methoxy-11′,12′-dimethyl-7′-(3-(4-morpholinyl)-1-propyn-1-yl)-3,4-dihydro-2H,15′H-spiro[naphthalene-1,22′-[20]oxa[13]thia[1,14]diazatetracyclo [14.7.2.0~3,6~.0~19,24~]pentacosa[8,16,18,24]tetraen]-15′-one 13′,13′-dioxide] | – | – | 0.373 | – | IC50 [2, 8]: 1920 nM |
| CO[C@]1(CN2CC[C@@H]3CCCC[C@H]3C2)/C=C/C[C@H](C)[C@@H](C)S(=O)(=O)NC(=O)c2ccc3c(c2)N(C[C@@H]2CC[C@H]21)C[C@@]1(CCCc2cc(Cl)ccc21)CO3 (single isomer, unassigned) [Example 90] | 4.66 | – | – | – | IC50 [2, 7]: 8980 nM |
| CO[C@@]1(C[C@@H](O)C2CC2)/C=C/C[C@H](C)[C@@H](C)S(=O)(=O)NC(=O)c2ccc3c(c2)N(C[C@@H]2CC[C@H]21)C[C@@]1(CCCc2cc(Cl)ccc21)CO3 (single isomer, unassigned) [Example 100461] | – | – | 0.042 | – | IC50 [2, 8]: 382 nM |
| CO[C@]1(CN2CCN3CCN(S(C)(=O)=O)C[C@@H]3C2)/C=C/C[C@H](C)[C@@H](C)S(=O)(=O)NC(=O)c2ccc3c(c2)N(C[C@@H]2CC[C@H]21)C[C@@]1(CCCc2cc(Cl)ccc21)CO3 (single isomer, unassigned) [Example 238] | 0.176 | – | – | – | IC50 [2, 7]: 76 nM |
| CO[C@@]1(CN2CCN(Cc3nc(C)c(C)o3)CC2)/C=C/C[C@H](C)[C@@H](C)S(=O)(=O)NC(=O)c2ccc3c(c2)N(C[C@@H]2CC[C@H]21)C[C@@]1(CCCc2cc(Cl)ccc21)CO3 [Example 322, (1S,3′R,6′R,7′S,8′E,11′S,12′R)-6-chloro-7′-((4-((4,5-dimethyl-1,3-oxazol-2-yl)methyl)-1-piperazinyl)methyl)-7′-methoxy-11′,12′-dimethyl-3,4-dihydro-2H,15′H-spiro[naphthalene-1,22′-[20]oxa[13]thia[1,14]diazatetracyclo [14.7.2.0~3,6~.0~19,24~]pentacosa[8,16,18,24]tetraen]-15′-one 13′,13′-dioxide] | 0.145 | 87 | – | – | – |
